Assay results taken from patent US8952024B2, “Herbicidal pyrimidone derivatives” (E I du Pont de Nemours and Company, priority 2009, dated 2015).

Assays:
Assay in all cases: Test D pre-/postemergence plant response
Assay type in all cases: in vivo
[1] = tested on: Russian thistle (Salsola kali)
In short: (§1)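 Ratings come from greenhouse-grown weeds in loam and sand treated pre- or postemergence (postemergence height 2 to 18 cm). Evaluation after 14–21 days, visual, relative to controls, on a 0–100 control scale.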

[2] = tested on: bermudagrass (Cynodon dactylon)
In short: as §1

[3] = tested on: black mustard (Brassica nigra)
In short: as §1

[4] = tested on: chickweed (common chickweed, Stellaria media); settings: Postemergence, 31 g ai/ha; scale 0 to 100
In short: as §1

[5] = tested on: field bindweed (Convolvulus arvensis)
In short: as §1

[6] = tested on: goosegrass (Eleusine indica)
In short: as §1

[7] = tested on: green foxtail (Setaria viridis)
In short: as §1

[8] = tested on: groundsel (common groundsel, Senecio vulgaris); settings: Postemergence
In short: as §1

[9] = tested on: johnsongrass (Sorghum halepense)
In short: as §1

[10] = tested on: kochia (Kochia scoparia)
In short: as §1

[11] = tested on: mallow (common mallow, Malva sylvestris)
In short: as §1

[12] = tested on: morningglory (pitted morningglory, Ipomoea lacunosa)
In short: as §1

[13] = tested on: nutsedge (purple nutsedge, Cyperus rotundus)
In short: as §1

[14] = tested on: prickly sida (Sida spinosa)
In short: as §1

[15] = tested on: purslane (common purslane, Portulaca oleracea)
In short: as §1

[16] = tested on: sowthistle (common sowthistle, Sonchus oleraceous)
In short: as §1

[17] = tested on: spanishneedles (Bidens bipinnata)
In short: as §1

[18] = Postemergence, 16 g ai/ha, scale 0 to 100
[19] = Postemergence, 31 g ai/ha, scale 0 to 100
[20] = Postemergence, 125 g ai/ha, scale 0 to 100 (0 no effect, 100 complete control)
[21] = Postemergence, 62 g ai/ha, scale 0 to 100 (0 no effect, 100 complete control)
[22] = Preemergence, 16 g ai/ha, scale 0 to 100, 0 no effect, 100 complete control
[23] = Preemergence, 31 g ai/ha, scale 0 to 100 (0 no effect, 100 complete control)
[24] = Preemergence, 125 g ai/ha, scale 0 to 100
[25] = Preemergence, 62 g ai/ha, scale 0 to 100

## O=C1CCCC(O)=C1C(=O)c1cnc(-c2cccnc2)n(-c2ccccc2)c1=O [Compound 113, 5-[(2-hydroxy-6-oxo-1-cyclohexen-1-yl)carbonyl]-3-phenyl-2-(3-pyridinyl)-4(3H)-pyrimidone]
[1]; [18]
  Plant response rating, Russian Thistle: 0
[1]; [19]
  Plant response rating, Russian Thistle: 0
[1]; [20]
  Plant response rating, Russian Thistle: 20
[1]; [21]
  Plant response rating, Russian Thistle: 20
[1]; [22]
  Plant response rating, Russian Thistle: 0
[1]; [23]
  Plant response rating, Russian Thistle: 65
[1]; [24]
  Plant response rating, Russian Thistle: 100
[2]; [18]
  Plant response rating, Bermudagrass: 65
[2]; Postemergence, 31 g ai/ha, scale 0 to 100 (0 no effect, 100 complete control)
  Plant response rating, Bermudagrass: 70
[2]; [20]
  Plant response rating, Bermudagrass: 80
[2]; [21]
  Plant response rating, Bermudagrass: 80
[2]; [22]
  Plant response rating, Bermudagrass: 50
[2]; [23]
  Plant response rating, Bermudagrass: 50
[2]; [25]
  Plant response rating, Bermudagrass: 70
[2]; [24]
  Plant response rating, Bermudagrass: 85
[3]; [18]
  Plant response rating, Black Mustard: 100
[3]; [20]
  Plant response rating, Black Mustard: 100
[3]; [21]
  Plant response rating, Black Mustard: 100
[3]; [22]
  Plant response rating, Black Mustard: 0
[3]; [23]
  Plant response rating, Black Mustard: 0
[3]; [25]
  Plant response rating, Black Mustard: 80
[3]; [24]
  Plant response rating, Black Mustard: 100
[4]
  Plant response rating, Chickweed: 70
[5]; [18]
  Plant response rating, Field Bindweed: 50
[5]; [19]
  Plant response rating, Field Bindweed: 65
[5]; [21]
  Plant response rating, Field Bindweed: 65
[5]; [22]
  Plant response rating, Field Bindweed: 0
[5]; [23]
  Plant response rating, Field Bindweed: 20
[5]; [25]
  Plant response rating, Field Bindweed: 65
[5]; [24]
  Plant response rating, Field Bindweed: 90
[6]; [18]
  Plant response rating, Goosegrass: 40
[6]; [19]
  Plant response rating, Goosegrass: 50
[6]; [20]
  Plant response rating, Goosegrass: 65
[6]; [21]
  Plant response rating, Goosegrass: 65
[6]; [22]
  Plant response rating, Goosegrass: 25
[6]; [23]
  Plant response rating, Goosegrass: 25
[6]; [25]
  Plant response rating, Goosegrass: 75
[6]; [24]
  Plant response rating, Goosegrass: 95
[7]; [18]
  Plant response rating, Foxtail, Green: 25
[7]; [19]
  Plant response rating, Foxtail, Green: 60
[7]; [20]
  Plant response rating, Foxtail, Green: 90
[7]; [21]
  Plant response rating, Foxtail, Green: 70
[7]; [22]
  Plant response rating, Foxtail, Green: 0
[7]; [23]
  Plant response rating, Foxtail, Green: 0
[7]; [25]
  Plant response rating, Foxtail, Green: 0
[7]; [24]
  Plant response rating, Foxtail, Green: 20
[8]; 16 g ai/ha, scale 0 to 100
  Plant response rating, Groundsel: 90
[8]; 31 g ai/ha, scale 0 to 100
  Plant response rating, Groundsel: 90
[8]; 125 g ai/ha, scale 0 to 100 (0 no effect, 100 complete control)
  Plant response rating, Groundsel: 100
[8]; 62 g ai/ha, scale 0 to 100 (0 no effect, 100 complete control)
  Plant response rating, Groundsel: 100
[9]; [18]
  Plant response rating, Johnsongrass: 40
[9]; [19]
  Plant response rating, Johnsongrass: 40
[9]; [20]
  Plant response rating, Johnsongrass: 75
[9]; [21]
  Plant response rating, Johnsongrass: 65
[9]; [22]
  Plant response rating, Johnsongrass: 0
[9]; [23]
  Plant response rating, Johnsongrass: 0
[9]; [25]
  Plant response rating, Johnsongrass: 10
[9]; [24]
  Plant response rating, Johnsongrass: 10
[10]; [18]
  Plant response rating, Kochia: 25
[10]; [19]
  Plant response rating, Kochia: 40
[10]; [20]
  Plant response rating, Kochia: 50
[10]; [21]
  Plant response rating, Kochia: 50
[10]; [23]
  Plant response rating, Kochia: 70
[10]; [25]
  Plant response rating, Kochia: 100
[10]; [24]
  Plant response rating, Kochia: 100
[11]; [18]
  Plant response rating, Mallow: 0
[11]; [19]
  Plant response rating, Mallow: 0
[11]; [20]
  Plant response rating, Mallow: 20
[11]; [21]
  Plant response rating, Mallow: 0
[11]; [22]
  Plant response rating, Mallow: 0
[11]; [23]
  Plant response rating, Mallow: 5
[11]; [25]
  Plant response rating, Mallow: 5
[11]; [24]
  Plant response rating, Mallow: 90
[12]; [18]
  Plant response rating, Morningglory: 50
[12]; [19]
  Plant response rating, Morningglory: 60
[12]; [20]
  Plant response rating, Morningglory: 90
[12]; [21]
  Plant response rating, Morningglory: 90
[12]; [22]
  Plant response rating, Morningglory: 60
[12]; [23]
  Plant response rating, Morningglory: 60
[12]; [25]
  Plant response rating, Morningglory: 60
[12]; [24]
  Plant response rating, Morningglory: 90
[13]; [18]
  Plant response rating, Nutsedge, Purple: 0
[13]; [19]
  Plant response rating, Nutsedge, Purple: 10
[13]; [20]
  Plant response rating, Nutsedge, Purple: 50
[13]; [21]
  Plant response rating, Nutsedge, Purple: 35
[13]; [22]
  Plant response rating, Nutsedge, Purple: 0
[13]; [23]
  Plant response rating, Nutsedge, Purple: 10
[13]; [25]
  Plant response rating, Nutsedge, Purple: 20
[13]; [24]
  Plant response rating, Nutsedge, Purple: 80
[14]; [18]
  Plant response rating, Prickly Sida: 50
[14]; [19]
  Plant response rating, Prickly Sida: 60
[14]; [20]
  Plant response rating, Prickly Sida: 70
[14]; [21]
  Plant response rating, Prickly Sida: 70
[14]; [22]
  Plant response rating, Prickly Sida: 0
[14]; [23]
  Plant response rating, Prickly Sida: 35
[14]; [25]
  Plant response rating, Prickly Sida: 70
[14]; [24]
  Plant response rating, Prickly Sida: 90
[15]; [18]
  Plant response rating, Purslane: 30
[15]; [19]
  Plant response rating, Purslane: 30
[15]; [20]
  Plant response rating, Purslane: 75
[15]; [21]
  Plant response rating, Purslane: 50
[15]; [22]
  Plant response rating, Purslane: 90
[15]; [23]
  Plant response rating, Purslane: 100
[15]; [25]
  Plant response rating, Purslane: 100
[15]; [24]
  Plant response rating, Purslane: 100
[16]; [18]
  Plant response rating, Sowthistle: 90
[16]; [19]
  Plant response rating, Sowthistle: 95
[16]; [20]
  Plant response rating, Sowthistle: 100
[16]; [21]
  Plant response rating, Sowthistle: 100
[16]; [22]
  Plant response rating, Sowthistle: 50
[16]; [23]
  Plant response rating, Sowthistle: 75
[16]; [24]
  Plant response rating, Sowthistle: 100
[17]; [18]
  Plant response rating, Spanishneedles: 35
[17]; [19]
  Plant response rating, Spanishneedles: 35
[17]; [20]
  Plant response rating, Spanishneedles: 60
[17]; [21]
  Plant response rating, Spanishneedles: 50
[17]; [22]
  Plant response rating, Spanishneedles: 0
[17]; [23]
  Plant response rating, Spanishneedles: 0
[17]; [24]
  Plant response rating, Spanishneedles: 95
